# Article PMC4660582, “Cyclic thrombospondin-1 mimetics: grafting of a thrombospondin sequence into circular disulfide-rich frameworks to inhibit endothelial cell migration” (Bioscience Reports, 2015)
# Where a SMILES comes first, the peptide text is derived from it. Bridges are numbered along the chain shown (N, C = ends). [ ]: non-standard residue; d: D form.
# What was measured:
# [1] = Stability assay in human serum; assay type: in vitro ADME; conditions: initial 300 μM; for remaining at 24 h, 300 μM: male, human, human serum, over a 24-h period, read-out: peptide remained in human serum
# Procedure: All peptides were tested on human serum from male AB plasma (Sigma–Aldrich) at an initial concentration of 300 μM. Peptide incubation time points were 0, 2, 4, 8, 16 and 24 h. Samples were prepared according to previously described methods. Briefly, 90 μL of supernatant was taken at each time point and chromatographed on a 0.3 mL/min Phenomenex column using a linear 1%/min gradient of 0–50% solvent B on an analytical reverse-phase HPLC (Agilent). The elution times for all peptides were determined by the serum control at 0 h. The stability of each peptide for each time point was calculated as the height of the serum-treated peptide peak at 215 nm as percentage of the height of the 0-h serum-treated control. Experiments were done in triplicate.
# Human red blood cells = experiment: Hemolytic assay; assay type: cell-based; conditions: peptides 0.01–50 μM; melittin positive control from 20 μM
# Procedure: Human red blood cells were used to measure the hemolysis of all peptides, with melittin used as a positive control. Peptides concentrations were 50 μM, 25 μM, 10 μM, 5 μM, 1 μM, 0.5 μM, 0.1 μM and 0.01 μM. Melittin was tested at eight concentrations, with two-fold dilution from a concentration of 20 μM. Sample absorbance was measured at 415 nm using a BioTek PowerWave XS instrument, as described previously. Experiments were done in triplicate.
# [2] = system: HT-29 (colon cancer cells); experiment: Cell proliferation assay (MTT, 72 h); assay type: cell-based; conditions: 72-h period
# Procedure: (§1) All cells were maintained using the media conditions described above, and passages 2–10 were used for all cell lines. Cell numbers of 2.5×10^3 cells/well (100 μL) were used for both HUVECs and HMVECs, and 1.5×10^3 cells/well (100 μL) were used for other cell lines in this assay. All cells were allowed to attach for 24 h after plating. Cells were treated with fresh media the next day, before the addition of peptides and then incubated for 72 h. Similar peptide concentrations to those mentioned above (in the cell cytotoxicity section) were used. 0.1% (v/v) Triton X-100 (10 μL) was used as a positive control. After 72 h of incubation, MTT and DMSO were added and analysed using the same method as described above.
# [3] = system: PC3 cells (prostate cancer cells); experiment: Cell proliferation assay (MTT, 72 h); assay type: cell-based; conditions: PC-3; 72-h period
# Procedure: as §1
# [4] = system: matriptase over-expressed PC-3 cell line; design: method as in PMID 24696092; conditions: cited from earlier work
# HMVECs = system: HMVECs; design: method as in PMID 15716381; conditions: at 5 nM; cited from earlier work
# HUVECs = system: HUVECs; design: method as in PMID 15716381; conditions: at 16 nM; cited from earlier work
molecule,measurement,setting,value
"CC[C@@H](C)[C@H]1NC(=O)[C@H](C(C)C)NC(=O)CNC(=O)[C@@H]2CSSC[C@@H]3NC(=O)[C@H](CC(=O)O)NC(=O)[C@H](CO)NC(=O)[C@H](CC(=O)O)NC(=O)[C@H](CCCNC(=N)N)NC(=O)[C@H](CCCNC(=N)N)NC(=O)[C@@H]4CSSC[C@H](NC(=O)[C@H]([C@@H](C)CC)NC(=O)[C@H](CSSC[C@H](NC(=O)[C@H](CCCNC(=N)N)NC(=O)[C@H]([C@@H](C)CC)NC(=O)[C@H](CCCNC(=N)N)NC(=O)[C@H]([C@@H](C)O)NC1=O)C(=O)N1CCC[C@H]1C(=O)N[C@@H](CCCCN)C(=O)N[C@@H]([C@@H](C)CC)C(=O)N[C@@H](CC(C)C)C(=O)N[C@@H](CCCCN)C(=O)N[C@@H](CCCCN)C(=O)N4)NC(=O)[C@H](C)NC(=O)CNC(=O)[C@@H]1CCCN1C3=O)C(=O)N[C@@H](CCCNC(=N)N)C(=O)NCC(=O)N[C@@H](CC(N)=O)C(=O)NCC(=O)N[C@@H](Cc1ccc(O)cc1)C(=O)N2 [MCo-TSP-1] (cyclo(ACICRGNGYCGV[dI]TRIRCPKILKKCRRDSDCPG); disulfide 2-18, 4-25, 10-31)","remaining at 24 h, 300 μM",[1],> 50%
"CC[C@@H](C)[C@H]1NC(=O)[C@H](C(C)C)NC(=O)CNC(=O)[C@@H]2CSSC[C@H](NC(=O)[C@H](CCCNC(=N)N)NC(=O)[C@H]([C@@H](C)CC)NC(=O)[C@H](CCCNC(=N)N)NC(=O)[C@H]([C@@H](C)O)NC1=O)C(=O)N[C@@H]([C@@H](C)O)C(=O)N[C@@H](CCCCN)C(=O)N[C@@H](CO)C(=O)N[C@@H]([C@@H](C)CC)C(=O)N1CCC[C@H]1C(=O)N1CCC[C@H]1C(=O)N[C@@H]([C@@H](C)CC)C(=O)N2 [SFTI-TSP-1, CTKSIPPICGViTRIR]","remaining at 24 h, 300 μM",[1],> 50%
"CC[C@@H](C)[C@@H](NC(=O)[C@@H](NC(=O)CN)C(C)C)C(=O)N[C@H](C(=O)N[C@@H](CCCNC(=N)N)C(=O)N[C@H](C(=O)N[C@@H](CCCNC(=N)N)C(=O)O)[C@@H](C)CC)[C@@H](C)O [linear TSP-1 heptapeptide, GViTRIR] (H-GV[dI]TRIR-OH)",time within which degraded in human serum,[1],≤ 24 h
CC[C@H](C)[C@H](NC(=O)CN)C(=O)NCC(=O)N[C@@H](C)C(=O)N[C@H](C(=O)N[C@@H](CC(C)C)C(=O)N[C@@H](CCCCN)C(=O)N[C@H](C(=O)N[C@@H](CC(C)C)C(=O)N[C@H](C(=O)N[C@H](C(=O)NCC(=O)N[C@@H](CC(C)C)C(=O)N1CCC[C@H]1C(=O)N[C@@H](C)C(=O)N[C@@H](CC(C)C)C(=O)N[C@H](C(=O)N[C@@H](CO)C(=O)N[C@@H](Cc1c[nH]c2ccccc12)C(=O)N[C@H](C(=O)N[C@@H](CCCCN)C(=O)N[C@@H](CCCNC(=N)N)C(=O)N[C@@H](CCCCN)C(=O)N[C@@H](CCCNC(=N)N)C(=O)N[C@@H](CCC(N)=O)C(=O)N[C@@H](CCC(N)=O)C(N)=O)[C@@H](C)CC)[C@@H](C)CC)[C@@H](C)O)[C@@H](C)O)C(C)C)C(C)C [melittin],haemolysis of human red blood cells,Human red blood cells,highly haemolytic
Momordica cochinchinensis trypsin inhibitor-II [MCoTI-II],anti-proliferative effect,[2],minor anti-proliferative effects
same,anti-proliferative effect,[3],minor anti-proliferative effects
same,effect on invasive cell migration,[4],inhibited invasive cell migration
sunflower trypsin inhibitor-1 [SFTI-1],anti-proliferative effect,[2],minor anti-proliferative effects
same,anti-proliferative effect,[3],minor anti-proliferative effects
thrombospondin-1 type-1 repeats [TSR],inhibition on HMVECs (migration),HMVECs,35%
same,inhibition on HUVECs (migration),HUVECs,60%
